Measured values: patent US12312337B2, “Compounds and methods for treating cancer” (ANTIDOTE IP HOLDINGS, LLC, priority 2019, dated 2025)

Molecular target: T1, human AhR (Homo sapiens, UniProt P35869)
T1 construct: INDIGO's Aryl Hydrocarbon Receptor (AhR) Reporter Cells include the luciferase reporter gene functionally linked to an AhR-responsive promoter
T1 sequence (P35869 11-848): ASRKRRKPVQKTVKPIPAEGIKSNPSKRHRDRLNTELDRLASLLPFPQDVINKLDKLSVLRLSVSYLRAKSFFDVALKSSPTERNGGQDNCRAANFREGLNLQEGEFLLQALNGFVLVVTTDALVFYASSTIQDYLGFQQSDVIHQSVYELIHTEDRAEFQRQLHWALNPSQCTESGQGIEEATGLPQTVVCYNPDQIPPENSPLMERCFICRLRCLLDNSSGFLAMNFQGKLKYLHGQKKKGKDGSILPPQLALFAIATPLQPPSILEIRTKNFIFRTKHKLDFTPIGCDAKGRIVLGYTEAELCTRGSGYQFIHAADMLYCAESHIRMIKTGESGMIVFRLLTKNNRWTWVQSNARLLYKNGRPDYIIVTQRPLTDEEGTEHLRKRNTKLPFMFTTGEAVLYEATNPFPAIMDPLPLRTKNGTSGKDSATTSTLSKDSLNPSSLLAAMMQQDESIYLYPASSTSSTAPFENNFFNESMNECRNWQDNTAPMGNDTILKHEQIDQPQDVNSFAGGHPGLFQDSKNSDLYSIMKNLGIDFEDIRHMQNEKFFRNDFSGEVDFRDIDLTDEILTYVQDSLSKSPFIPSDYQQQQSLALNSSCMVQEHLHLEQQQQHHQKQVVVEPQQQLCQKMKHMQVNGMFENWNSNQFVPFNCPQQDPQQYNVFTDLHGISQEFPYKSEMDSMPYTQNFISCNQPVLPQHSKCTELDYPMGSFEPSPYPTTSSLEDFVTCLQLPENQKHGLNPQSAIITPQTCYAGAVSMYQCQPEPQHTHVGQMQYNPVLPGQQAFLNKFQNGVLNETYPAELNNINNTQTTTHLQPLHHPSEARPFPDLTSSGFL
Assay: INDIGO AhR Reporter Assay (luciferase reporter cells, antagonist mode)
Format: cell-based
Settings: antagonist mode with 50 nM of VAF347 (AhR agonist); 22-24 hours incubation; luciferase RLU
Text: INDIGO's Aryl Hydrocarbon Receptor (AhR) Reporter Cells include the luciferase reporter gene functionally linked to an AhR-responsive promoter. Thus, quantifying changes in luciferase expression in the treated reporter cells provides a sensitive surrogate measure of the changes in AhR activity. The principle application of this reporter assay is in the screening of test samples to quantify any functional activity, either agonist or antagonist, that they may exert against human AhR. Reporter Cells incorporate the cDNA encoding beetle luciferase, a 62 kD protein originating from the North American firefly (Photinus pyralis). Luciferase catalyzes the mono-oxidation of D-luciferin in a Mg^2+-dependent reaction that consumes 02 and ATP as co-substrates, and yields as products oxyluciferin, AMP, PPi, CO2, and photon emission. Luminescence intensity of the reaction is quantified using a luminometer, and is reported in terms of Relative Light Units (RLU's). In brief, 200 μl of Reporter Cells was dispensed into wells of the assay plate and pre-incubated for 4-6 hours. Following the pre-incubation period, culture media were discarded and 200 µl/well of the prepared 1×-concentration treatment media were added. Following 22-24 hours of incubation, treatment media were discarded and Luciferase Detection Reagent was added. The intensity of light emission (in units of “Relative Light Units” (RLU)) from each assay well was quantified using a plate-reading luminometer. The assay was run as a competitive binding assay in the antagonist mode with 50 nM of VAF347, a known AhR agonist.
In Table 4, IC50 values are reported as A, B, C, or D. A represents an IC50 value of less than 100 nM. B represents an IC50 value of equal or greater than 100 nM and less than 500 nM. C represents an IC50 value of equal or greater than 500 nM and less than 1 μM. D represents an IC50 value of equal or greater than 1 μM.

Row | IC50 | SMILES
1 | 100 to 500 nM | Cc1ccccc1/N=N/c1ccc(NC(=O)c2ccnn2C)c(C)c1 [CH223191, reference compound]
2 | 100 to 500 nM | Cn1nc(C(C)(C)C)cc1NC(=O)c1cc2ncccc2cc1Cl [Compound 19, N-(3-tert-Butyl-1-methyl-1H-pyrazol-5-yl)-6-chloroquinoline-7-carboxamide]
3 | < 100 nM | Cn1nc(C(F)(F)F)cc1NC(=O)c1cc2ncccc2cc1Cl [Compound 27, 6-Chloro-N-[1-methyl-3-(trifluoromethyl)-1H-pyrazol-5-yl]quinoline-7-carboxamide]
4 | 100 to 500 nM | Cn1nc(-c2ccccc2F)cc1NC(=O)c1cc2ncccc2cc1Cl [Compound 29, 6-Chloro-N-[3-(2-fluorophenyl)-1-methyl-1H-pyrazol-5-yl]quinoline-7-carboxamide]
5 | < 100 nM | Cc1ccccc1-c1cc(NC(=O)c2cc3ncccc3cc2Cl)n(C)n1 [Compound 31, 6-Chloro-N-[1-methyl-3-(2-methylphenyl)-1H-pyrazol-5-yl]quinoline-7-carboxamide]
6 | 500 to 1000 nM | CCN(CC)S(=O)(=O)c1cc(NC(=O)c2cc3ncccc3cc2Cl)ccc1F [Compound 33, 6-Chloro-N-(3-(N,N-diethylsulfamoyl)-4-fluorophenyl)quinoline-7-carboxamide]
7 | 100 to 500 nM | CCN(CC)S(=O)(=O)c1cc(NC(=O)c2cc3ncccc3cc2Cl)ccc1Cl [Compound 34, 6-Chloro-N-(4-chloro-3-(N,N-diethylsulfamoyl)phenyl)quinoline-7-carboxamide]
8 | < 100 nM | Cn1nc(C(F)(F)F)cc1NC(=O)c1ccc2cc(-c3ccccc3)cnc2c1 [Compound 40, N-[1-Methyl-3-(trifluoromethyl)-1H-pyrazol-5-yl]-3-phenylquinoline-7-carboxamide]
9 | 100 to 500 nM | Cn1nc(-c2ccccc2C(F)(F)F)cc1NC(=O)c1cc2ncccc2cc1Cl [Compound 44, 6-Chloro-N-(1-methyl-3-(2-(trifluoromethyl)phenyl)-1H-pyrazol-5-yl)quinoline-7-carboxamide]
10 | 100 to 500 nM | Cn1nc(-c2cccc(C(F)(F)F)c2)cc1NC(=O)c1cc2ncccc2cc1Cl [Compound 48, 6-Chloro-N-{1-methyl-3-[3-(trifluoromethyl)phenyl]-1H-pyrazol-5-yl}quinoline-7-carboxamide]
11 | < 100 nM | Cc1ccc(F)cc1-c1cc(NC(=O)c2cc3ncccc3cc2Cl)n(C)n1 [Compound 50, 6-Chloro-N-[3-(5-fluoro-2-methylphenyl)-1-methyl-1H-pyrazol-5-yl]quinoline-7-carboxamide]
12 | < 100 nM | Cc1ccc(Cl)cc1-c1cc(NC(=O)c2cc3ncccc3cc2Cl)n(C)n1 [Compound 51, 6-Chloro-N-[3-(5-chloro-2-methylphenyl)-1-methyl-1H-pyrazol-5-yl]quinoline-7-carboxamide]
13 | 100 to 500 nM | Cc1ccccc1-c1cnc2cc(C(=O)Nc3cc(C(F)(F)F)nn3C)ccc2c1 [Compound 52, N-[1-methyl-3-(trifluoromethyl)-1H-pyrazol-5-yl]-3-(2-methylphenyl) quinoline-7-carboxamide]
14 | 500 to 1000 nM | Cn1nc(C(F)(F)F)cc1NC(=O)c1ccc2cc(-c3ccccc3C(F)(F)F)cnc2c1 [Compound 53, N-[1-methyl-3-(trifluoromethyl)-1H-pyrazol-5-yl]-3-[2-(trifluoromethyl)phenyl]quinoline-7-carboxamide]
15 | < 100 nM | Cn1nc(C(F)(F)F)cc1NC(=O)c1ccc2cc(-c3ccccc3F)cnc2c1 [Compound 54, 3-(2-Fluorophenyl)-N-[1-methyl-3-(trifluoromethyl)-1H-pyrazol-5-yl]quinoline-7-carboxamide]
16 | > 1000 nM | Cn1nc(C(F)(F)F)cc1NC(=O)c1ccc2cc(-c3cccc(C(F)(F)F)c3)cnc2c1 [Compound 55, N-[1-Methyl-3-(trifluoromethyl)-1H-pyrazol-5-yl]-3-[3-(trifluoromethyl)phenyl]quinoline-7-carboxamide]
17 | 100 to 500 nM | Cc1cc(F)ccc1-c1cc(NC(=O)c2cc3ncccc3cc2Cl)n(C)n1 [Compound 57, 6-Chloro-N-(3-(4-fluoro-2-methylphenyl)-1-methyl-1H-pyrazol-5-yl) quinoline-7-carboxamide]
